In PMC10979105, “A simple method to resolve rate constants when the binding mechanism obeys induced fit or conformational selection” (The Journal of Biological Chemistry, 2024):
“And” between values parts separate entries of the source, which are not always exact repeats. Equal entries are not always repeated.

How the values were obtained:
[1] = tested on: prethrombin-2 (S195A mutant); assay: Rapid kinetics (stopped-flow) of FPR binding to prethrombin-2
Description: Rapid kinetics of FPR binding to thrombin resolved the two independent relaxations (Equations 3 and 4) for CS and the four independent rate constants. On the other hand, similar measurements for prethrombin-2 produced only a saturable relaxation increasing with [FPR] (Fig. 2A) ([30]), thereby preventing resolution of the four independent constants and a full comparison with the mature protease thrombin. This situation provides an ideal test for application of the method based on Equation 11. The saturable relaxation for FPR binding to prethrombin-2 increases from α(0) = […] to α(∞) = 150 ± 20 s^−1, with a midpoint xm = 200 ± 20 μM and α(xm) = 88 ± 9 s^−1 (Fig. 2A and Table 2). […] Interpretation of the saturable relaxation in terms of CS gives k12 = 150 ± 20 s^−1 and koff = 25 ± 3 s^−1. Application of Equation 11 then yields kon = 4.0 ± 0.4 μM^−1s^−1 and Equation 9 gives αˆ(0)=k12+k21 = 890 ± 90 s^−1, so k21 = 740 ± 70 s^−1 (Table 2). The value of kon is almost identical to that reported for the mature protease thrombin (2.6 ± 0.3 μM^−1s^−1), whilst the value of koff is 40-fold higher (25 ± 3 s^−1 versus 0.60 ± 0.06 s^−1) ([30]). […] The conclusion is independent of whether FPR binding to prethrombin-2 is interpreted according to CS or IF. Application of the conversion formulas in Table 1 gives rate constants for IF equal to kon = 4.0 ± 0.4 μM^−1s^−1, koff = 765 ± 80 s^−1, k23 = 120 ± 10 s^−1, and k32 = 29 ± 3 s^−1 (Table 2), thereby making the contribution of a decreased rate of dissociation in the protease even more evident. Importantly, the two sets of rate constants for IF and CS yield the same value for Kd,app (Table 2), as shown by application of Equation 10 and the conversion formulas in Table 1. The importance of koff in setting the difference between ligand binding to prethrombin-2 and thrombin was anticipated by previous studies ([30]). The method based on Equation 11 provides a quantitative estimate of the difference and adds rigor to previous conclusions.
(§1) Figure 2 Binding of FPR to thrombin zymogens.A, rapid kinetics of FPR binding to the zymogens prothrombin (closed circles) and prethrombin-2 (open circles), showing a saturable relaxation associated with the interaction. The lack of information on a fast relaxation increasing linearly with [FPR] prevented assignment of the value of kon in the original report ([30]). Curves were drawn with the empirical expression [α(0)xm+α(∞)x]/(xm+x) , where x =[FPR], with best-fit parameters listed in Table 2. B, fractional saturation of FPR binding to prothrombin (closed circles) and prethrombin-2 (open circles). These values, together with the parameters derived from the plots in panel A, allow for derivation of the value of kon from Equation 11. […] Data in panels A and B were taken from ([30]) and were obtained under the following experimental conditions: 400 mM ChCl, 50 mM Tris, 0.1% PEG8000, pH 8, at 15 °C. CS, conformational selection; FPR, H-D-Phe-Pro-Arg-p-nitroanilide; IF, induced fit.
(§2) The data analyzed in this study, that is, FPR binding to prethrombin-2, prothrombin, and thrombin (Figs. 2, A and B and 3, A and B) were taken from ([30]) without modification. The methodology used to produce the recombinant proteins, measure FPR binding by stopped-flow or equilibrium titrations is reported in ([30]) and references therein. Values of the slow relaxation α(x) (Fig. 1, A and B, 2A and 3A) are measured by stopped-slow as a function of the ligand concentration and derived from fit of the time evolution of the interaction according to the expression ([1])(12) A(x,t)=A0(x)+A1(x)exp{−α(x)t}

[2] = tested on: prothrombin; assay: Rapid kinetics (stopped-flow) of FPR binding to prothrombin; conditions: model independent, fit of data from ref 30
Description: as §1
The method also offers a simple test of whether the experimental data under consideration require more complex binding mechanisms than IF or CS. This is an important property of the method that may prompt reconsideration of current interpretations of ligand binding in terms of IF or CS made from analysis of a single saturable relaxation. The denominator of Equation 11 introduces a constraint on the relative values of Kd,app and xm . If the resulting term is negative, the model independent parameters (Equations (5), (6), (7) and 10) of the slow relaxation cannot be interpreted in terms of IF or CS. The data describing the kinetic relaxation (Fig. 1, A and B) and equilibrium binding (Fig. 1C) become incompatible when interpreted with Equations 9 and 10 and more elaborate mechanisms should be considered. We illustrate this point for the case of FPR binding to prothrombin, which is the physiological zymogen precursor of thrombin ([23]). Prothrombin is composed of a protease domain identical to prethrombin-2 linked to additional kringles and Gla domains that are shed during activation to thrombin by prothrombinase in the penultimate step of the coagulation cascade ([23], [31]). Because prothrombin and prethrombin-2 share the same protease domain, binding of FPR may be expected to take place with a similar affinity and mechanism in the two zymogens. […]
as §2, with “The methodology used to produce the recombinant proteins, measure FPR binding by stopped-flow or equilibrium titrations is reported in ([30]) and references therein.” left out

[3] = tested on: thrombin mutant S195A; assay: Equilibrium titration of intrinsic fluorescence, FPR binding to thrombin; conditions: thrombin versus prethrombin-2
Description: Figure 3 Binding of FPR to thrombin.A, rapid kinetics of FPR binding to thrombin showing the fast ( α1 ) and slow ( α2 ) relaxations defining a mechanism of binding consistent with IF or CS (see also Fig. 1A). Continuous lines depict Equations 3 and 4 in the original report ([30]) with best-fit parameter values of Equation 1 or Equation 2 listed in Table 2. […] The discontinuous line for the slow relaxation was drawn with the empirical expression [α(0)xm+α(∞)x]/(xm+x) , where x = [FPR], with best-fit parameters listed in Table 2. The discontinuous line for the fast relaxation was drawn using Equation 3 with the four independent rate constants obtained from application of Equation 11 (Table 2). […] The four independent rate constants derived from application of the method compare well with the values determined from application of Equations 3 and 4 in the original report ([30]). […]
The value of Kd,app is obtained from titration of intrinsic fluorescence at equilibrium (Figs. 2B and 3B) according to the expression(13) F(x)=F0Kd,app+F1x/Kd,app+x=F0(1−ϑ)+F1ϑ where ϑ=x/(Kd,app+x) is the fractional saturation (Figs. 1C, 2B and 3B). […] At each value of the ligand concentration, the change in absorbance from the initial ( t=0 ) to final ( t=∞ ) state gives the equilibrium reading equivalent to F(x) in Equation 13.

[4] = tested on: thrombin mutant S195A; set-up: method as in PMID 29511224; conditions: cited from earlier work
[5] = biological target: thrombin mutant S195A; set-up: method as in PMID 29511224; conditions: fluorescence titration at equilibrium; 400 mM ChCl, 50 mM Tris, 0.1% PEG8000, pH 8, 15 °C; read-out: Kd,app; cited from earlier work
[6] = biological target: prethrombin-2 (S195A mutant); set-up: method as in PMID 29511224; conditions: fluorescence titration at equilibrium; 400 mM ChCl, 50 mM Tris, 0.1% PEG8000, pH 8, 15 °C; read-out: Kd,app; cited from earlier work
[7] = biological target: prothrombin; set-up: method as in PMID 29511224; conditions: fluorescence titration at equilibrium; 400 mM ChCl, 50 mM Tris, 0.1% PEG8000, pH 8, 15 °C; read-out: Kd,app; cited from earlier work
[8] = IF, conversion formulas of Table 1
[9] = model independent, pH 8, 15 °C, fit of data from ref 30
[10] = CS, from analysis of two relaxations

Compound N=C(N)NCCC[C@H](NC(=O)[C@@H]1CCCN1C(=O)[C@H](N)Cc1ccccc1)C(=O)Nc1ccc([N+](=O)[O-])cc1 [FPR, H-D-Phe-Pro-Arg-p-nitroanilide] has a koffIF [1, 8] of 765 ± 80 s⁻¹, a konIF [1, 8] of 4e+06 ± 400000 M⁻¹ s⁻¹ and a kon ([1]; model independent, derived from Equation 11) of 4e+06 ± 400000 M⁻¹ s⁻¹. The “α(0), lower asymptote of slow relaxation” value ([1]; model independent, 400 mM ChCl, 50 mM Tris, 0.1% PEG8000, pH 8, 15 °C, fit of data from ref 30) was 25 ± 0.3 s⁻¹ and 25 ± 2 s⁻¹, the “xm, midpoint of the slow relaxation” value [1, 9] was 200 ± 20 µM and the “α(xm), slow relaxation at midpoint” value [1, 9] was 88 ± 9 s⁻¹. The “α(∞), asymptote of slow relaxation” value [1, 9] was 150 ± 20 s⁻¹ and 150 ± 10 s⁻¹, the “α(0), asymptote of slow relaxation” value ([2]; 400 mM ChCl, 50 mM Tris, 0.1% PEG8000, pH 8, 15 °C) was 45 ± 4 s⁻¹ and 45 ± 5 s⁻¹ and the “xm, midpoint of the slow relaxation” value ([2]; pH 8, 15 °C) was 54 ± 5 µM. The “α(xm), slow relaxation at midpoint” value ([2]; pH 8, 15 °C) was 26 ± 3 s⁻¹, the “α(∞), asymptote of slow relaxation” value ([2]; pH 8, 15 °C) was 6.9 ± 0.7 s⁻¹ and the “difference in equilibrium binding affinity between prethrombin-2 and thrombin” value [3] was over 100 fold. For the same compound, the k12 [4, 10] was 16 ± 1 s⁻¹, the k21 [4, 10] was 3.8 ± 0.8 s⁻¹ and the koffCS [4, 10] was 0.6 ± 0.1 s⁻¹. For the same compound, the konCS [4, 10] was 2.6e+06 ± 300000 M⁻¹ s⁻¹, the k23 ([4]; IF) was 13 ± 1 (13 ± 1) s^−1 and the k32 ([4]; IF) was 2.6 ± 0.3 s⁻¹. The koffIF ([4]; IF) was 4.4 ± 0.4 s⁻¹, the konIF ([4]; IF) was 2.6e+06 ± 300000 M⁻¹ s⁻¹ and the Kd [5] was 0.28 ± 0.02 µM. The Kd [6] was 37 ± 4 µM and the Kd [7] was 195 ± 20 µM.
